Test results from patent publication US20170313674A1, “BENZYLHYDROXIDE DERIVATIVES, PREPARATION THEREOF AND THERAPEUTIC USE THEREOF” (SANOFI, priority 2014, published 2017).
Read-outs that look alike come from different tables or passages of the source.

Columns and labels:
[1] = test system: HIF-1a; assay: Western blot model: HIF1-a stabilization in Hep3b cells under hypoxia; type: cell-based; settings: hypoxia 1% O2, 6 hours; for Western Blot (range of decrease of HIF1-a stabilization): class symbol
Experimental: Since it was sought to determine the efficacy of the compounds to inhibit HIF1a stabilization under hypoxia, the compounds according to the invention underwent biochemical studies in order to determine their capacity to decrease HIF stabilization in Hep3b cells under hypoxia (western blot model).
Hep3B cells are seeded at a rate of 300000 cells per well in 6-wells culture plate in 2 ml of MEM supplemented with glutamin (2 mM) and 10% FCS (foetal calf serum) and incubated at 37° C. in the presence of 5% CO2. The next day, the cells are placed in contact with the compound and an incubation under hypoxia at 1% O2 is carried out at 37° C. in 95% humidity and 5% CO2 in a sealed anaerobic workstation (Hypoxystation H35-Don Whitley—AES Chemunex) during 6 hours.
Cells were washed (PBS) and lysed in SDS sample buffer. Proteins (25 μg) were separated on 4-12% Bis-Tris gels and transferred onto polyvinylidene difluoride membranes (Millipore). Membranes were blotted with a mouse monoclonal antibody to HIF-1a (BD transduction) and a mouse monoclonal anti-βactin (Sigma). Immunoreactive bands were detected with a horse radish peroxydase (HRP) anti-mouse antibody (Sigma) by enhanced chemiluminescence (Promega).
The inhibitory activity of the compounds for their capacity to decrease HIF1-a stabilization in Hep3b under hypoxia is expressed as range of percentage relative to control with: […]

[2] = test system: mitochondrial ATP production on non-small cell lung carcinoma cell lines NCI-H460; assay: Mitochondrial ATP analysis (Cell Titer Glo) in NCI-H460 cells; type: cell-based; settings: 1-hour incubation, with sodium iodoacetate (100 μM), concentration inhibiting 50% of mitochondrial ATP production, read-out: IC50 (mito ATP)
Summary of the method: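 NCI-H460 cells (1,000/well) treated 24 h after plating for 1 h with compound dose series alone or with 100 μM sodium iodoacetate; oligomycin A (10 μg/ml) and FCCP (30 μM) as controls; Cell Titer Glo luminescence. Mitochondrial ATP = ATP under iodoacetate minus ATP under iodoacetate+oligomycin; IC50 (M).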

Structure (SMILES)	Western Blot (decrease of HIF1-a stabilization, percentage relative to control) [1] [%]	Western Blot (range of decrease of HIF1-a stabilization) [1]	IC50 [2] [nM]	IC50 ([2]; Homo sapiens, NCI-H460, 1 h) [nM]
COc1ccc(C(O)C(C)(C)Oc2ccc(-c3c[nH]c(-c4ccc(OC(C)(C)C(O)c5ccc(OC)c(OC)c5)cc4)n3)cc2)cc1OC (single isomer, unassigned) [Compound I-56, 1-(3,4-dimethoxyphenyl)-2-[4-[2-[4-[2-(3,4-dimethoxyphenyl)-2-hydroxy-1,1-dimethyl-ethoxy]phenyl]-1H-imidazol-4-yl]phenoxy]-2-methyl-propan-1-ol]	75	*** (*** represents a decrease of HIF-a stabilization higher than 70%)	760	–
COc1ccc(C(O)COc2ccc(-c3csc(-c4ccc(OCC(O)c5ccc(OC)c(OC)c5)cc4)n3)cc2)cc1OC (single isomer, unassigned) [Compound I-61, 1-(3,4-dimethoxyphenyl)-2-[4-[2-[4-[2-(3,4-dimethoxyphenyl)-2-hydroxy-ethoxy]phenyl]thiazol-4-yl]phenoxy]ethanol]	46	* (* represents a decrease of HIF-a stabilization between 30 to 50%)	326	–
COc1ccc(C(O)COc2ccc(-c3csc(-c4ccc(OCC(O)c5ccc(OC)c(OC)c5)cc4)n3)cc2)cc1OC (single isomer, unassigned) [Compound I-62, 1-(3,4-dimethoxyphenyl)-2-[4-[2-[4-[2-(3,4-dimethoxyphenyl)-2-hydroxy-ethoxy]phenyl]thiazol-4-yl]phenoxy]ethanol]	43	* (* represents a decrease of HIF-a stabilization between 30 to 50%)	492	–
COc1ccc(C(O)COc2ccc(-c3csc(-c4ccc(OC(C)(C)C(O)c5ccc(OC)c(OC)c5)cc4)n3)cc2)cc1OC (single isomer, unassigned) [Compound I-65, 1-(3,4-dimethoxyphenyl)-2-[4-[4-[4-[2-(3,4-dimethoxyphenyl)-2-hydroxy-ethoxy]phenyl]thiazol-2-yl]phenoxy]-2-methyl-propan-1-ol]	41	* (* represents a decrease of HIF-a stabilization between 30 to 50%)	–	23.8
COc1ccc(C(O)COc2ccc(-c3csc(-c4ccc(OC(C)(C)C(O)c5ccc(OC)c(OC)c5)cc4)n3)cc2)cc1OC (single isomer, unassigned) [Compound I-66, 1-(3,4-dimethoxyphenyl)-2-[4-[4-[4-[2-(3,4-dimethoxyphenyl)-2-hydroxy-ethoxy]phenyl]thiazol-2-yl]phenoxy]-2-methyl-propan-1-ol]	54	** (** represents a decrease of HIF-a stabilization between 50 to 70%)	26.5	–
COc1ccc(C(O)COc2ccc(-c3nc(-c4ccc(OCC(O)c5ccc(OC)c(OC)c5)cc4)c(C)o3)cc2)cc1OC (stereo not drawn) [Compound I-1, 1-(3,4-dimethoxyphenyl)-2-[4-[2-[4-[2-(3,4-dimethoxyphenyl)-2-hydroxy-ethoxy]phenyl]-5-methyl-oxazol-4-yl]phenoxy]ethanol]	48	* (* represents a decrease of HIF-a stabilization between 30 to 50%)	–	353
COc1ccc(C(O)C(C)(C)Oc2ccc(-c3nc(-c4ccc(OC(C)(C)C(O)c5ccc(OC)c(OC)c5)cc4)c(C)o3)cc2)cc1OC (stereo not drawn) [Compound I-2, 1-(3,4-dimethoxyphenyl)-2-[4-[2-[4-[2-(3,4-dimethoxyphenyl)-2-hydroxy-1,1-dimethyl-ethoxy]phenyl]-5-methyl-oxazol-4-yl]phenoxy]-2-methyl-propan-1-ol]	54	** (** represents a decrease of HIF-a stabilization between 50 to 70%)	–	23
COc1ccc(C(O)C(C)(C)Oc2ccc(-c3nc(-c4ccc(OC(C)(C)C(O)c5ccc(OC)c(OC)c5)cc4)c(C)s3)cc2)cc1OC (stereo not drawn) [Compound I-6, 1-(3,4-dimethoxyphenyl)-2-[4-[2-[4-[2-(3,4-dimethoxyphenyl)-2-hydroxy-1,1-dimethyl-ethoxy]phenyl]-5-methyl-thiazol-4-yl]phenoxy]-2-methyl-propan-1-ol]	43	* (* represents a decrease of HIF-a stabilization between 30 to 50%)	–	21.3
COc1ccc(C(O)COc2ccc(-c3nc(-c4ccc(OCC(O)c5ccc(OC)c(OC)c5)cc4)c(C)s3)cc2)cc1OC (stereo not drawn) [Compound I-7, 1-(3,4-dimethoxyphenyl)-2-[4-[2-[4-[2-(3,4-dimethoxyphenyl)-2-hydroxy-ethoxy]phenyl]-5-methyl-thiazol-4-yl]phenoxy]ethanol]	63	** (** represents a decrease of HIF-a stabilization between 50 to 70%)	–	284
COc1ccc(C(O)C(C)Oc2ccc(-c3coc(-c4ccc(OC(C)C(O)c5ccc(OC)c(OC)c5)cc4)n3)cc2)cc1OC (stereo not drawn) [Compound I-12, 1-(3,4-dimethoxyphenyl)-2-[4-[2-[4-[2-(3,4-dimethoxyphenyl)-2-hydroxy-1-methyl-ethoxy]phenyl]oxazol-4-yl]phenoxy]propan-1-ol]	38	* (* represents a decrease of HIF-a stabilization between 30 to 50%)	–	128
COc1ccc(C(O)C(C)(C)Oc2ccc(-c3csc(-c4ccc(OC(C)(C)C(O)c5ccc(OC)c(OC)c5)cc4)n3)cc2)cc1OC (stereo not drawn) [Compound I-26, 1-(3,4-dimethoxyphenyl)-2-[4-[2-[4-[2-(3,4-dimethoxyphenyl)-2-hydroxy-1,1-dimethyl-ethoxy]phenyl]thiazol-4-yl]phenoxy]-2-methyl-propan-1-ol]	39	* (* represents a decrease of HIF-a stabilization between 30 to 50%)	–	7.32
COc1ccc(C(O)C(C)(C)Oc2ccc(-c3csc(-c4ccc(OC(C)(C)C(O)c5ccc(OC)c(OC)c5)cc4)n3)cc2)cc1OC (stereo not drawn) [Compound I-27, 1-(3,4-dimethoxyphenyl)-2-[4-[2-[4-[2-(3,4-dimethoxyphenyl)-2-hydroxy-1,1-dimethyl-ethoxy]phenyl]thiazol-4-yl]phenoxy]-2-methyl-propan-1-ol]	40	* (* represents a decrease of HIF-a stabilization between 30 to 50%)	3.68	–
COc1ccc(C(O)C(C)(C)Oc2ccc(-c3csc(-c4ccc(OC(C)(C)C(O)c5ccc(OC)c(OC)c5)cc4)c3)cc2)cc1OC (stereo not drawn) [Compound I-34, 1-(3,4-dimethoxyphenyl)-2-[4-[5-[4-[2-(3,4-dimethoxyphenyl)-2-hydroxy-1,1-dimethyl-ethoxy]phenyl]-3-thienyl]phenoxy]-2-methyl-propan-1-ol]	64	** (** represents a decrease of HIF-a stabilization between 50 to 70%)	–	6
COc1ccc(C(O)COc2ccc(-c3csc(-c4ccc(OCC(O)c5ccc(OC)c(OC)c5)cc4)c3)cc2)cc1OC (stereo not drawn) [Compound I-35, 1-(3,4-dimethoxyphenyl)-2-[4-[5-[4-[2-(3,4-dimethoxyphenyl)-2-hydroxy-ethoxy]phenyl]-3-thienyl]phenoxy]ethanol]	68	** (** represents a decrease of HIF-a stabilization between 50 to 70%)	–	303
COc1ccc(C(O)COc2ccc(-c3noc(-c4ccc(OCC(O)c5ccc(OC)c(OC)c5)cc4)n3)cc2)cc1OC (stereo not drawn) [Compound I-36, 1-(3,4-dimethoxyphenyl)-2-[4-[5-[4-[2-(3,4-dimethoxyphenyl)-2-hydroxy-ethoxy]phenyl]-1,2,4-oxadiazol-3-yl]phenoxy]ethanol]	62	** (** represents a decrease of HIF-a stabilization between 50 to 70%)	–	676
COc1ccc(C(O)C(C)(C)Oc2ccc(-c3noc(-c4ccc(OC(C)(C)C(O)c5ccc(OC)c(OC)c5)cc4)n3)cc2)cc1OC (stereo not drawn) [Compound I-38, 1-(3,4-dimethoxyphenyl)-2-[4-[5-[4-[2-(3,4-dimethoxyphenyl)-2-hydroxy-11-dimethyl-ethoxy]phenyl]-1,2,4-oxadiazol-3-yl]phenoxy]-2-methyl-propan-1-ol]	79	*** (*** represents a decrease of HIF-a stabilization higher than 70%)	133	–
